The structures appear in SMILES notation.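 Five concentrations, 48 hours, 96-well plates. The concentration for 50% growth inhibition is given as GI50. TGI denotes the concentration required for complete inhibition of growth.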

From PubChem BioAssay (NCI) come the findings set out here.

Test systems include ACHN renal; SNB-19 CNS; RPMI-8226 leukemia; HCT-15 colon; HCT-116 colon; M14 melanoma; NCI-H23 lung; HOP-92 NSCLC; UACC-62 melanoma; NCI-H460 lung; KM12 colon.
Holding throughout (experiment): DTP human tumour cell line panel, 48 h

One may read the TGI as the concentration at which net growth stops. Lower therefore signals more potent growth arrest. `Cc1cc(C)c2c(=O)n(CC(O)CN3CCN(c4ncccn4)CC3)sc2n1` (stereo not given): the TGI in the assay with ACHN renal was 32.4 µM; in the assay on SNB-19 CNS, more than 100 µM; in the assay with RPMI-8226 leukemia it was 44 µM; in the assay with HCT-15 colon, 35.4 µM; in the assay with HCT-116 colon, 29 µM; in the assay with M14 melanoma, 29.1 µM. The TGI in the assay with NCI-H23 lung was 31.6 µM; in the assay with HOP-92 NSCLC, more than 100 µM; in the assay with UACC-62 melanoma it was 31.6 µM; in the assay with NCI-H460 lung, 31.2 µM; in the assay with KM12 colon, 44.6 µM.
On to `CCOC(=O)Cn1c(=O)c2cc(C)cc3c(Cl)nc4c(OC)c(OC)cc1c4c32`, for which the TGI with ACHN renal, with SNB-19 CNS, in the assay on RPMI-8226 leukemia, with HCT-15 colon, in the assay on HCT-116 colon and in the assay with M14 melanoma was more than 100 µM in each case. Moreover, the TGI in the assay on NCI-H23 lung, in the assay with HOP-92 NSCLC, in the assay with UACC-62 melanoma, with NCI-H460 lung and with KM12 colon was more than 100 µM throughout.
For `O=C(NCCc1ccc(F)cc1)c1cc(/C=C/c2cc(O)ccc2O)ccc1O`, the TGI with ACHN renal was 4.25 µM; in the assay with SNB-19 CNS, 20.8 µM; in the assay with RPMI-8226 leukemia, more than 100 µM; with HCT-15 colon, 6.32 µM; in the assay on HCT-116 colon, 3.94 µM; in the assay on M14 melanoma, 12.5 µM. In addition, the TGI in the assay with NCI-H23 lung was determined as 13.3 µM; with HOP-92 NSCLC it was 3.97 µM; in the assay on UACC-62 melanoma, 4.85 µM; in the assay on NCI-H460 lung, 40 µM; in the assay with KM12 colon it was 38 µM.
Consider `CCCCc1ccc(Nc2nc(N)c3[nH]cnc3n2)cc1`, for which the TGI was found to be 35.5 µM in the assay on ACHN renal; 37.8 µM with SNB-19 CNS; 77.5 µM in the assay with RPMI-8226 leukemia; 66.1 µM with HCT-15 colon; 32.3 µM in the assay with HCT-116 colon; 88 µM in the assay with M14 melanoma. In addition, the TGI was determined as 32.8 µM in the assay on NCI-H23 lung; 33.3 µM in the assay on HOP-92 NSCLC; 35.3 µM with UACC-62 melanoma; 52.2 µM in the assay on NCI-H460 lung; 36.5 µM with KM12 colon.
`CCOC(=O)C(C(N)=O)c1nc2cc([N+](=O)[O-])ccc2nc1/C=C(\O)c1ccc(C)cc1` (stereo not given): the total growth inhibition concentration (TGI) was more than 52.6 µM in the assay on ACHN renal; 48.3 µM in the assay with SNB-19 CNS; 40.6 µM in the assay with RPMI-8226 leukemia; more than 82.2 µM with HCT-15 colon; 55.4 µM in the assay on HCT-116 colon; more than 100 µM in the assay on M14 melanoma. For the same compound, the total growth inhibition concentration (TGI) was 34.3 µM with NCI-H23 lung; 40.8 µM in the assay with HOP-92 NSCLC; more than 72.3 µM with UACC-62 melanoma; 58.1 µM in the assay with NCI-H460 lung; more than 100 µM in the assay with KM12 colon.
Turning to `COc1c2c(cc3oc(=O)ccc13)OC(C)(C)C=C2`, the TGI was 70 µM in the assay on ACHN renal; more than 125 µM with SNB-19 CNS; 87.6 µM in the assay on RPMI-8226 leukemia; 65.5 µM in the assay with HCT-15 colon; 40.8 µM in the assay with HCT-116 colon; 48.4 µM in the assay with M14 melanoma. Further, the TGI in the assay with NCI-H23 lung was 60.1 µM; with HOP-92 NSCLC it was 34.1 µM; in the assay with UACC-62 melanoma it was 42.2 µM; in the assay on NCI-H460 lung, 62.2 µM; with KM12 colon it was 48.5 µM.
Regarding `COC(=O)/C=C1\C(=O)N(C(C)=O)c2ccccc21`, the TGI in the assay with ACHN renal was 20.1 µM; in the assay on SNB-19 CNS, more than 51.9 µM; in the assay with RPMI-8226 leukemia it was 47.6 µM; in the assay with HCT-15 colon it was 26.2 µM; in the assay on HCT-116 colon, 31.2 µM; in the assay with M14 melanoma, 58.7 µM. The concentration for total growth inhibition (TGI) in the assay on NCI-H23 lung was found to be 28.9 µM; in the assay with HOP-92 NSCLC it was 16.8 µM; in the assay on UACC-62 melanoma, 18.4 µM; in the assay with NCI-H460 lung, 27.1 µM; in the assay on KM12 colon, 29.2 µM.
Consider `COc1ccc(/C=C/C=C2C(=O)NC(=S)NC2=O)cc1`, for which the TGI in the assay on ACHN renal amounted to 16.7 µM; in the assay on SNB-19 CNS, 20 µM; with RPMI-8226 leukemia, 18.2 µM; in the assay with HCT-15 colon, 8.68 µM; in the assay on HCT-116 colon, 13.7 µM; in the assay on M14 melanoma it was 21.7 µM. Further, the TGI was 21 µM in the assay with NCI-H23 lung; 25.4 µM with HOP-92 NSCLC; 9.1 µM in the assay on UACC-62 melanoma; 30.6 µM with NCI-H460 lung; 34.6 µM with KM12 colon.
As for `C=CCCCN1C(=O)C2C3c4ccccc4C(C=O)(c4ccccc43)C2C1=O` (stereo not given), the TGI in the assay on ACHN renal was more than 100 µM; with SNB-19 CNS, 32.1 µM; with RPMI-8226 leukemia it was 28.5 µM; in the assay on HCT-15 colon, 21.5 µM; in the assay with HCT-116 colon it was 14.9 µM; with NCI-H23 lung it was 33 µM. The TGI with HOP-92 NSCLC stood at 28.2 µM; in the assay on UACC-62 melanoma it was 36.6 µM; in the assay with NCI-H460 lung it was 30.3 µM; in the assay on KM12 colon it was 21.6 µM.
Take `CN(C)c1ccc(C(=C2C=CC(=[N+](C)C)C=C2)c2c(O)c(S(=O)(=O)[O-])cc3cc(S(=O)(=O)O)ccc23)cc1`: the TGI in the assay on ACHN renal, in the assay with SNB-19 CNS, in the assay with RPMI-8226 leukemia, in the assay with HCT-15 colon, in the assay on HCT-116 colon and in the assay with M14 melanoma was more than 100 µM each time. Moreover, the TGI with NCI-H23 lung, with HOP-92 NSCLC, with UACC-62 melanoma, with NCI-H460 lung and with KM12 colon was more than 100 µM throughout.
As a reminder, the GI50 is the concentration that inhibits growth by half. Take `N.N.NCCCCN.O=C([O-])CCl.O=C([O-])CCl.O=C([O-])CCl.O=C([O-])CCl.[Pt+4].[Pt+4]`: the TGI in the assay on ACHN renal, in the assay on RPMI-8226 leukemia, in the assay with HCT-15 colon, in the assay with HCT-116 colon, in the assay on M14 melanoma and in the assay on NCI-H23 lung was more than 50 µM throughout. Besides, the TGI with HOP-92 NSCLC, with UACC-62 melanoma, in the assay with NCI-H460 lung and in the assay on KM12 colon was more than 50 µM in each case. For the same compound, the GI50 with RPMI-8226 leukemia was more than 50 µM.
For `Brc1ccc2c(c1)[C@H]1CCc3c([nH]c4ccccc34)[C@H]1N2`, the TGI was found to be 25 µM in the assay with ACHN renal; 27 µM in the assay with SNB-19 CNS; 23.2 µM in the assay with RPMI-8226 leukemia; 21 µM with HCT-116 colon; 29.9 µM with M14 melanoma; 25 µM in the assay with NCI-H23 lung. Besides, the TGI in the assay on HOP-92 NSCLC is 26.3 µM; in the assay with UACC-62 melanoma it was 24 µM; in the assay on NCI-H460 lung it was 24.8 µM; in the assay on KM12 colon, 18.6 µM.
